# Measurements from patent publication US9980976B2, “Use of REDD1 inhibitors to dissociate therapeutic and adverse atrophogenic effects of glucocorticoid receptor agonists” (Northwestern University, priority 2015, dated 2018).
# Tests used:
# [1] = tested on: REDD1; experiment: REDD1 expression in mouse epidermis and s.c. adipose (Q-PCR, Western blot, immunostaining); assay type: in vivo
# Description: FIG. 16. […] F1 C57B1×129 mice were treated topically with solvent (control), FA ((2 μg/mouse×8 hrs) or pretreated with Rapamycin (500 nmol/mouse×6 hrs) followed by FA treatment for 8 h. RNA and whole cell proteins were extracted from epidermis isolated as described in Matherials and Methods. A. Q-PCR analysis of REDD1 expression. The results were normalized to the expression of the housekeeping Rp127 gene, and presented as fold of change compared to control animals. The means+/−SD calculated for three individual RNA samples/condition. a—Statistically significant difference (P<0.05) compared to control; b—Statistically significant differences (P<0.05) compared to FA treatment. B. Western blot analysis of whole cell proteins in epidermis. Membranes were probed with anti-GAPDH antibodies to verify equal protein loading and transfer. C. Ear edema test. Ear edema was induced by croton oil (CO, 20 ul/ear) as in Materials and Methods. Solvent (20 ul/ear) or FA (1 ug/ear) were applied 1 h before CO after 6 hrs of pre-treatment with rapamycin (200 ng/ear) or solvent. Mice were sacrificed and four-millimeter ear punches were weighed 9 h after CO application to assess swelling. Ear punch weight results are presented as % to control (only solvent treatment) ear weight The means+/−SD were calculated for six individual ear punches/condition in one representative experiment (out of three experiments). a—Statistically significant differences (P<0.05) compared to control treatment; b—Statistically significant differences (P<0.05) compared to CO or CO+rapa treatment.
# Seven-week-old females in the telogen stage of the hair cycle were shaved and treated 3 days later. Glucocorticoid FA was applied topically (2 μg/animal) in 200 μl acetone to the back skin once or up to four times every third day as described (Chebotaev et al, 2007c). Control animals were treated with acetone only. Animals were injected i.p. with bromodeoxyuridine (BrdU, Sigma-Aldrich, 50 μg/g of animal weight) 1 h before skin was harvested. Epidermis and s.c. fat were isolated from the murine dorsal skin mechanically by scraping (Chebotaev et al, 2007c).
# Sections of formalin-fixed, paraffin-embedded skin and ORCs were stained with hematoxylin and eosin (H&E), Masson's trichrome to evaluate the effect on dermis and collagen fibers (Sheehan & Hrapchack, 1980), and with antibodies against BrdU (BD Biosciences, San Jose, Calif., USA), keratins 1, 5, and 10, loricrin (Covance, Princeton, N.J.), phospho-mTORSer2448 (Cell Signaling Technology, Inc., Danvers, Mass., USA), REDD1 (Proteintech Group, Inc, Chicago, Ill.), p63 (eBioscience, San Diego, Calif., USA), and CD34 (Abcam, Cambridge, Mass., USA). […]
# [2] = tested on: LC3; experiment: Autophagy in mouse epidermis (LC3-I to LC3-II conversion, Beclin-1); assay type: in vivo; settings: FA-treated mouse skin
# Description: In accordance, we observed in FA-treated skin the conversion of light chain 3 (LC3) from its free form (LC3-I) to a membrane-bound state (LC3-II), a key step that initiates autophagy in mammalian cells (Klionsky et al, 2012). LC3-I to LC3-II conversion reached its maximum 8 h after FA treatment and paralleled with the increase of another autophagy marker Beclin-1, highest REDD1 expression and strongest repression of mTOR activity (FIGS. 2C, D).
# The whole-cell protein extracts were prepared using RIPA buffer with protease and phosphatase inhibitor cocktails (Thermo Scientific, Thermo Fisher Scientific Inc., Waltham, Mass., USA), resolved by SDS-PAGE on 4-20% gels and transferred to Odyssey nitrocellulose membranes (LI-COR Biosciences, Lincoln, Neb., USA). Membranes were blocked with Odyssey Blocking Buffer and incubated with primary antibodies overnight at 4° C., followed by IRDye® secondary antibodies (LI-COR Biosciences). LI-COR Odyssey Imager was used for the band visualization. Equal loading and adequate transfer to the membranes were verified by staining with Ponceau S (Sigma-Aldrich) and with anti-GAPDH (Sigma-Aldrich) antibody. We used Abs against: REDD1 (Proteintech Group, Inc., Chicago, Ill.), LC3B, phospho-rpS6Ser240/244, phospho-4E-BP1Thr37/46, phospho-GRSer211 (Cell Signaling Technology, Inc.), and GR (H-300 or M-20, Santa Cruz Biotechnology, Inc.).
# [3] = tested on: croton oil-induced ear edema; experiment: Croton oil-induced ear edema test; assay type: in vivo, mouse
structure (smiles),measurement,setting,value
"CC1(C)O[C@@H]2C[C@H]3[C@@H]4C[C@H](F)C5=CC(=O)C=C[C@]5(C)[C@@]4(F)[C@@H](O)C[C@]3(C)[C@]2(C(=O)CO)O1 [FA, fluocinolone acetonide]",REDD1 expression in s.c. adipose versus epidermis,"[1]; B6D2 mice, 24 h after FA, Q-PCR",equally activated in s.c. adipose and epidermis
same,REDD1 expression in skin,"[1]; F1 C57B1×129 mice, topical FA 2 ug/animal×24 h",strongly induced
same,REDD1 mRNA increase,"[1]; epidermis of B6D2 mice, 4-24 h after the first FA application, Q-PCR",~4.5 fold
same,REDD1 protein expression,"[1]; skin of B6D2 mice, Western blot and immunostaining, single and chronic FA",induced REDD1 expression as early as 4-8 h after first application
same,time of maximum LC3-I to LC3-II conversion after treatment,[2],8 h
same,ear edema / ear weight,"[3]; croton oil 20 ul/ear, FA 1 ug/ear 1 h before CO, weighed 9 h after CO",reduced edema decreasing the ear weight to control level
same,anti-inflammatory effect (ear morphology and ear punch weight),"[3]; wild-type and REDD1 KO mice, FA 2 μg 1 h before croton oil, 9 h after CO",relieved this inflammatory response with equal potency
